Source: the NIST ThermoML archive (doi:10.1016/j.tca.2014.05.028)
± gives the expanded uncertainty stated by the source.

Experiment: xn = mol fraction of the nth substance listed
Settings: 101 kPa, Liquid; for viscosity: Falling or rolling sphere viscometry; for mass density: Vibrating tube method

CCCC[N+]1(C)CCCC1.[Br-] [1-butyl-1-methylpyrrolidinium bromide] + O
Settings | mass density [kg/m3] | viscosity [mPa·s]
298.15 K, x1 = 0.0265 | 1049.2 ± 0.4 | 1.64 ± 0.099
298.15 K, x1 = 0.0561 | 1093.18 ± 0.33 | 2.906 ± 0.18
298.15 K, x1 = 0.0871 | 1125.96 ± 0.29 | 4.9 ± 0.3
298.15 K, x1 = 0.1283 | 1156.08 ± 0.28 | 8.897 ± 0.54
298.15 K, x1 = 0.1645 | 1174.63 ± 0.29 | 13.84 ± 0.84
298.15 K, x1 = 0.2074 | 1190.42 ± 0.33 | 22.21 ± 1.4
298.15 K, x1 = 0.2525 | 1202.66 ± 0.38 | 36.28 ± 2.2
298.15 K, x1 = 0.28 | 1208.32 ± 0.41 | 44.98 ± 2.7
298.15 K, x1 = 0.3012 | 1212.16 ± 0.44 | 54.7 ± 3.3
298.15 K, x1 = 0.3254 | 1215.99 ± 0.48 | 67.64 ± 4.1
298.15 K, x1 = 1 | 1221.19 ± 2.9 | –
303.15 K, x1 = 0.0265 | 1047.05 ± 0.4 | 1.444 ± 0.087
303.15 K, x1 = 0.0561 | 1090.36 ± 0.33 | 2.5 ± 0.15
303.15 K, x1 = 0.0871 | 1122.7 ± 0.29 | 4.146 ± 0.25
303.15 K, x1 = 0.1283 | 1152.59 ± 0.28 | 7.398 ± 0.45
303.15 K, x1 = 0.1645 | 1171.08 ± 0.29 | 11.27 ± 0.68
303.15 K, x1 = 0.2074 | 1186.89 ± 0.33 | 17.69 ± 1.1
303.15 K, x1 = 0.2525 | 1199.19 ± 0.37 | 27.6 ± 1.7
303.15 K, x1 = 0.28 | 1204.89 ± 0.41 | 34.67 ± 2.1
303.15 K, x1 = 0.3012 | 1208.76 ± 0.44 | 41.65 ± 2.5
303.15 K, x1 = 0.3254 | 1212.62 ± 0.48 | 51.14 ± 3.1
303.15 K, x1 = 1 | 1217.27 ± 2.9 | –
308.15 K, x1 = 0.0265 | 1044.76 ± 0.39 | 1.24 ± 0.075
308.15 K, x1 = 0.0561 | 1087.45 ± 0.33 | 2.11 ± 0.13
308.15 K, x1 = 0.0871 | 1119.39 ± 0.29 | 3.445 ± 0.21
308.15 K, x1 = 0.1283 | 1149.06 ± 0.28 | 6.041 ± 0.37
308.15 K, x1 = 0.1645 | 1167.5 ± 0.29 | 9.049 ± 0.55
308.15 K, x1 = 0.2074 | 1183.35 ± 0.32 | 13.87 ± 0.84
308.15 K, x1 = 0.2525 | 1195.71 ± 0.37 | 21.22 ± 1.3
308.15 K, x1 = 0.28 | 1201.45 ± 0.41 | 26.45 ± 1.6
308.15 K, x1 = 0.3012 | 1205.35 ± 0.44 | 31.5 ± 1.9
308.15 K, x1 = 0.3254 | 1209.25 ± 0.47 | 38.4 ± 2.3
308.15 K, x1 = 1 | 1213.38 ± 2.8 | –
313.15 K, x1 = 0.0265 | 1042.32 ± 0.39 | 1.099 ± 0.067
313.15 K, x1 = 0.0561 | 1084.45 ± 0.33 | 1.833 ± 0.11
313.15 K, x1 = 0.0871 | 1116.03 ± 0.28 | 2.945 ± 0.18
313.15 K, x1 = 0.1283 | 1145.49 ± 0.28 | 5.106 ± 0.31
313.15 K, x1 = 0.1645 | 1163.9 ± 0.29 | 7.53 ± 0.46
313.15 K, x1 = 0.2074 | 1179.78 ± 0.32 | 11.35 ± 0.69
313.15 K, x1 = 0.2525 | 1192.21 ± 0.37 | 17.02 ± 1
313.15 K, x1 = 0.28 | 1198 ± 0.4 | 20.97 ± 1.3
313.15 K, x1 = 0.3012 | 1201.93 ± 0.43 | 24.8 ± 1.5
313.15 K, x1 = 0.3254 | 1205.87 ± 0.47 | 30.02 ± 1.8
313.15 K, x1 = 1 | 1209.51 ± 2.8 | –
318.15 K, x1 = 0.0265 | 1039.75 ± 0.38 | 0.987 ± 0.06
318.15 K, x1 = 0.0561 | 1081.37 ± 0.32 | 1.621 ± 0.098
318.15 K, x1 = 0.0871 | 1112.61 ± 0.28 | 2.579 ± 0.16
318.15 K, x1 = 0.1283 | 1141.9 ± 0.28 | 4.399 ± 0.27
318.15 K, x1 = 0.1645 | 1160.28 ± 0.29 | 6.4 ± 0.39
318.15 K, x1 = 0.2074 | 1176.2 ± 0.32 | 9.501 ± 0.58
318.15 K, x1 = 0.2525 | 1188.7 ± 0.37 | 14.03 ± 0.85
318.15 K, x1 = 0.28 | 1194.53 ± 0.4 | 17.12 ± 1
318.15 K, x1 = 0.3012 | 1198.5 ± 0.43 | 20.1 ± 1.2
318.15 K, x1 = 0.3254 | 1202.48 ± 0.47 | 24.1 ± 1.5
318.15 K, x1 = 1 | 1205.66 ± 2.8 | –
323.15 K, x1 = 0.0265 | 1037.05 ± 0.38 | 0.879 ± 0.053
323.15 K, x1 = 0.0561 | 1078.21 ± 0.32 | 1.42 ± 0.086
323.15 K, x1 = 0.0871 | 1109.15 ± 0.28 | 2.234 ± 0.14
323.15 K, x1 = 0.1283 | 1138.27 ± 0.28 | 3.762 ± 0.23
323.15 K, x1 = 0.1645 | 1156.64 ± 0.29 | 5.403 ± 0.33
323.15 K, x1 = 0.2074 | 1172.59 ± 0.32 | 7.915 ± 0.48
323.15 K, x1 = 0.2525 | 1185.17 ± 0.37 | 11.49 ± 0.7
323.15 K, x1 = 0.28 | 1191.05 ± 0.4 | 13.89 ± 0.84
323.15 K, x1 = 0.3012 | 1195.06 ± 0.43 | 16.27 ± 0.99
323.15 K, x1 = 0.3254 | 1199.08 ± 0.47 | 19.34 ± 1.2
323.15 K, x1 = 1 | 1201.84 ± 2.8 | –
328.15 K, x1 = 0.0265 | 1034.23 ± 0.38 | 0.782 ± 0.047
328.15 K, x1 = 0.0561 | 1074.97 ± 0.32 | 1.244 ± 0.075
328.15 K, x1 = 0.0871 | 1105.64 ± 0.28 | 1.935 ± 0.12
328.15 K, x1 = 0.1283 | 1134.62 ± 0.28 | 3.23 ± 0.2
328.15 K, x1 = 0.1645 | 1152.97 ± 0.29 | 4.572 ± 0.28
328.15 K, x1 = 0.2074 | 1168.97 ± 0.32 | 6.602 ± 0.4
328.15 K, x1 = 0.2525 | 1181.63 ± 0.36 | 9.462 ± 0.57
328.15 K, x1 = 0.28 | 1187.55 ± 0.4 | 11.38 ± 0.69
328.15 K, x1 = 0.3012 | 1191.6 ± 0.43 | 13.25 ± 0.8
328.15 K, x1 = 0.3254 | 1195.67 ± 0.46 | 15.64 ± 0.95
328.15 K, x1 = 1 | 1198.05 ± 2.8 | –
333.15 K, x1 = 0.0265 | 1031.32 ± 0.38 | 0.705 ± 0.043
333.15 K, x1 = 0.0561 | 1071.61 ± 0.32 | 1.1 ± 0.067
333.15 K, x1 = 0.0871 | 1102.07 ± 0.28 | 1.701 ± 0.1
333.15 K, x1 = 0.1283 | 1130.94 ± 0.28 | 2.817 ± 0.17
333.15 K, x1 = 0.1645 | 1149.27 ± 0.29 | 3.923 ± 0.24
333.15 K, x1 = 0.2074 | 1165.34 ± 0.32 | 5.554 ± 0.34
333.15 K, x1 = 0.2525 | 1178.06 ± 0.36 | 7.969 ± 0.48
333.15 K, x1 = 0.28 | 1184.04 ± 0.4 | 9.48 ± 0.57
333.15 K, x1 = 0.3012 | 1188.13 ± 0.42 | 10.97 ± 0.67
333.15 K, x1 = 0.3254 | 1192.25 ± 0.46 | 12.89 ± 0.78
333.15 K, x1 = 1 | 1194.28 ± 2.8 | –
338.15 K, x1 = 0.0265 | 1028.4 ± 0.37 | 0.649 ± 0.039
338.15 K, x1 = 0.0561 | 1068.07 ± 0.32 | 0.997 ± 0.06
338.15 K, x1 = 0.0871 | 1098.46 ± 0.28 | 1.536 ± 0.093
338.15 K, x1 = 0.1283 | 1127.23 ± 0.28 | 2.525 ± 0.15
338.15 K, x1 = 0.1645 | 1145.56 ± 0.28 | 3.462 ± 0.21
338.15 K, x1 = 0.2074 | 1161.68 ± 0.31 | 4.89 ± 0.3
338.15 K, x1 = 0.2525 | 1174.49 ± 0.36 | 6.876 ± 0.42
338.15 K, x1 = 0.28 | 1180.52 ± 0.39 | 8.118 ± 0.49
338.15 K, x1 = 0.3012 | 1184.65 ± 0.42 | 9.372 ± 0.57
338.15 K, x1 = 0.3254 | 1188.82 ± 0.46 | 10.94 ± 0.66
338.15 K, x1 = 1 | 1190.53 ± 2.7 | –
343.15 K, x1 = 0.0265 | 1024.59 ± 0.37 | 0.586 ± 0.035
343.15 K, x1 = 0.0561 | 1065.42 ± 0.32 | 0.887 ± 0.054
343.15 K, x1 = 0.0871 | 1094.8 ± 0.28 | 1.366 ± 0.083
343.15 K, x1 = 0.1283 | 1123.48 ± 0.28 | 2.229 ± 0.14
343.15 K, x1 = 0.1645 | 1141.82 ± 0.28 | 3.005 ± 0.18
343.15 K, x1 = 0.2074 | 1158 ± 0.31 | 4.186 ± 0.25
343.15 K, x1 = 0.2525 | 1170.9 ± 0.36 | 5.839 ± 0.35
343.15 K, x1 = 0.28 | 1176.99 ± 0.39 | 6.858 ± 0.42
343.15 K, x1 = 0.3012 | 1181.16 ± 0.42 | 7.882 ± 0.48
343.15 K, x1 = 0.3254 | 1185.37 ± 0.46 | 9.135 ± 0.55
343.15 K, x1 = 1 | 1186.8 ± 2.7 | –
